Experimental data published in paper PMC11191317, “PNSC928, a plant-derived compound, specifically disrupts CtBP2-p300 interaction and reduces inflammation in mice with acute respiratory distress syndrome” (Biology Direct, 2024).

Tested on: ARDS mice
Test: LPS-induced ARDS mouse model
Assay type: in vivo
Method: All animal experiments were performed following a protocol reviewed and approved by the Institutional Animal Care and Use Committee at Jiangxi Provincial People’s Hospital. We procured C57BL/6 mice from Charles River Laboratories (Beijing, China) and maintained them in specific pathogen-free (SPF) conditions, with a 12-hour light/dark cycle and free access to food and sterile water. We established the ARDS mouse model by administering LPS via tracheal intubation, following an established protocol. Briefly, mice (eight-week-old, half male and half female, 22–25 g) were anesthetized using isoflurane inhalation and randomly classified into Control and ARDS groups. Control mice received 50 µL sterile saline, while ARDS mice were given 25 µg LPS (Sigma-Aldrich, Shanghai, China; #LPS25) in 50 µL sterile saline. Mice were immediately positioned upright and rotated to evenly distribute the LPS within the lungs.
To assess the impact of CtBP2, p300, NF-κB inhibitors, and PNSC928 on ARDS progression, mice were further categorized post-4 h LPS administration into different groups: ARDS, ARDS + MTOB (700 mg/kg; MedChemExpress; Monmouth Junction, NJ; #HY-135,046), ARDS + NSC95397 (1.5 mg/kg; MedChemExpress; #HY-108,543), ARDS + C646 (10 mg/kg; MedChemExpress; #HY-13,823), ARDS + A-485 (50 mg/kg; MedChemExpress; #HY-107,455), ARDS + TPCA1 (10 mg/kg; MedChemExpress; #HY-10,074), ARDS + BOT64 (50 mg/kg; MedChemExpress; #HY-136,741), and ARDS + PNSC928 (20 mg/kg). Mice received these compounds daily for two days. Body weight and temperature were recorded every 24 h. At 48 h post-LPS challenge, mice were sacrificed, and blood samples and lung tissues were harvested.
To collect bronchoalveolar lavage fluid (BALF), the Control, ARDS, and ARDS + PNSC928 groups of mice (n = 10 for each group) were anesthetized with isoflurane inhalation in accordance with institutional guidelines. Mice were placed on their backs, and a small incision was made at the base of the neck to expose the trachea. A flexible catheter was inserted into the trachea and secured with a suture. A syringe filled with sterile phosphate-buffered saline (PBS) (Thermo Fisher, Shanghai, China; #10,010,023) was attached to the catheter, and 1.5 mL of PBS was gently instilled into the right lungs. After allowing the fluid to sit for 10 s, it was aspirated back into the syringe. This process was repeated three times to ensure thorough lavage. The collected BALF was kept on ice in a sterile tube, then centrifuged at 1,000 × g for 10 min at 4 °C to pellet the cells. The supernatant was stored at -80 °C for further analyses.
Whole blood samples were allowed to stand undisturbed at room temperature for 15 min before being centrifuged at 1,000 × g for 10 min. The supernatant serum and BALF were used to measure concentrations of IL-1β, IL-6, IL-15, IL-18, and TNF-α with specific enzyme-linked immunosorbent assay (ELISA) kits as per manufacturer guidelines. The ELISA kits used were: IL-1β (Thermo Fisher; #KMC0011), IL-6 (Thermo Fisher; #KMC0061), IL-15 (Abcam; Shanghai, China; #ab275898), IL-18 (Thermo Fisher; #BMS618-3), and TNF-α (Thermo Fisher; #BMS607-3). Total BALF protein levels were measured using the BCA Protein Assay Kit (Abcam; #ab102536) according to the manufacturer’s protocol.
MPO activity was determined according to a previously established protocol. Briefly, lung tissues (50 mg per mouse) were washed with ice-cold PBS to remove residual blood, then homogenized in a buffer containing 2.5 g of hexadecyltrimethylammonium bromide (Sigma-Aldrich; # H5882) dissolved in 500 mL of PBS. The tissue homogenate was kept on ice for 30 min before centrifugation at 16,000 × g for 10 min at 4 °C. The supernatant was used to measure MPO activity with the Myeloperoxidase Activity Assay Kit (Abcam; #ab105136) according to the manufacturer’s method.
The right upper lobe of the lung was excised, rinsed with PBS, blotted dry, and weighed to determine the “wet” weight. […]

[1] = ARDS mice, 25 μg LPS + 20 mg/kg PNSC928

Question: With CC(=CCCC1=CCC(C2COC(=O)C2)OC1O)CCC1=C(C)CCCC1(C)C (stereo not shown) [PNSC928] as the compound, how does the “Lung wet-to-dry weight ratio” value [1] read?
Answer: significant reduction

Question: And the “MPO activity in lung tissues” value [1]?
Answer: significant reduction

Question: What about the “Survival rate of ARDS mice” value [1] of the same compound?
Answer: enhancing the survival rate

Question: What about the “Total BALF protein levels” value [1] of the same compound?
Answer: significant reduction

Question: What about the “Lung expressions of IL-1B, IL-6, IL-15, IL-18, TNFA, and IFNG (RT-qPCR)” value (ARDS mice, PNSC928 20 mg/kg) of the same compound?
Answer: significantly reduced

Question: What about the “Lung expressions of S100A8, ICAM1, SPP1, FBN1, and SPSB1 (RT-qPCR)” value (ARDS mice, PNSC928 20 mg/kg) of the same compound?
Answer: without notably altering

Question: And the “Serum and BALF concentrations of pro-inflammatory cytokines (ELISA)” value (ARDS mice, PNSC928 20 mg/kg from 4 h post-LPS, daily for two days)?
Answer: significantly abated

Question: What about the “Serum and BALF pro-inflammatory cytokine levels in comparison to control mice” value (ARDS mice, PNSC928 20 mg/kg from 4 h post-LPS, elevated vs control mice) of the same compound?
Answer: 1.3–1.5 fold

Question: And the “Decrease in body weights and respiratory distress (pO2) caused by LPS” value (ARDS mice, PNSC928 20 mg/kg, measured at 0, 1, and 2 days)?
Answer: alleviated

Question: And the “Lung damage by histological examination (H&E, histological scores)” value (LPS-challenged mice, PNSC928 20 mg/kg)?
Answer: recovered lung damage
